Results as given in patent US20250179047A1, “5-[7-(3,4-DIHYDRO-1H-ISOQUINOLINE-2-CARBONYL)-1,2,3,4 TETRAHYDROISOQUINOLIN-6-YL]-1H-PYRROLE-3-CARBOXAMIDE DERIVATIVES, PHARMACEUTICAL COMPOSITIONS CONTAINING THEM AND THEIR USES AS PRO-APOPTOTIC AGENTS” (LES LABORATOIRES SERVIER, priority 2022, published 2025).

Tests used:
BCL2 WT = BCL2 WT (Homo sapiens (Human), UniProt P10415); assay: TR-FRET competitive binding assay, BCL2 WT; conditions: Ki determined from IC50, read-out: TR_FRET EKI_Bcl2 WT
Outline: (§1)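 Ki derived from IC50 (11-point dilution, 520/495 nm emission ratio) for displacing a fluorescein-labelled PUMA peptide (2 or 20 nM). Target was 0.5 nM E. coli-expressed Halo-tagged BCL2 (1-207) or BCLXL (2-196), terbium-labelled on Halo. Incubation 2 h at 23°C in pH 7.5 Hepes with 150 mM NaCl and 5% DMSO.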

BCL2 G101V [1] = biological target: BCL2 G101V (Homo sapiens, UniProt P10415, G101V); assay: TR-FRET competitive binding assay, BCL2 G101V; conditions: BCL2 G101V; Ki determined from IC50; read-out: TR_FRET EKI_Bcl2 G101V
Outline: as §1

BCL2 G101V [2] = assay: TR-FRET competitive binding assay, BCL2 G101V; parameters: species or system human; conditions: ratio Ki BCL2 G101V / Ki BCL2 WT
Outline: as §1

BCL2 D103Y = BCL2 D103Y (Homo sapiens, UniProt P10415, D103Y); assay: TR-FRET competitive binding assay, BCL2 D103Y; conditions: Ki determined from IC50, read-out: TR_FRET EKI_Bcl2 D103Y
Outline: as §1

BCL2 F104I = BCL2 F104I (Homo sapiens, UniProt P10415, F104I); assay: TR-FRET competitive binding assay, BCL2 F104I; conditions: Ki determined from IC50, read-out: TR_FRET EKI_Bcl2 F104I
Method: (§2) The relative binding potency of each compound was determined in a competitive binding assay using time resolved-fluorescence resonance energy transfer (TR-FRET). The method utilised a fluorescein labelled peptide derived from PUMA (5Flu-Ahx-[…]-NH2 wherein Ahx means 6-hexanoic acid monomer and the amino acid sequence is referred to as SEQ ID:01) which binds to a terbium labelled BCL2 or BCLXL protein. The degree of binding or corresponding compound inhibition can be quantified by the TR-FRET signal between the terbium donor and fluorescein acceptor.
(§3) The human BCL2_wild-type (also named BCL2_wt), BCL2_G101V mutant and BCLXL_wild-type were E. coli expressed as a N-terminal Halo-fusion proteins and singly labelled with Terbium on the Halo protein to afford the following amino acid sequences:
(§4) wherein the BCL2(1-207) sequence corresponds to UniProtKB® primary accession number P10415 and the BCLXL(2-196) sequence corresponds to UniProtKB® primary accession number Q07817-1.
(§5) The assay was performed in a 40 μL volume in white 384-standard well plates (Corning #3574). An 11-point serial dilution of each compound was prepared in DMSO and transferred directly to plate followed by addition of fluorescein labelled peptide and lastly protein. Final assay conditions were 0.5 nM BCL2_wt, BCL2_G101V, BCL2_D103Y, BCL2_F104I, BCL2_D111A or BCLXL_wt, 2 or 20 nM fluorescein labelled peptide, 50 mM Hepes pH 7.5, 150 mM NaCl, 0.5 mM TCEP (Tris(2-carboxyethyl)phosphine), 0.05% Tween 20, 5% DMSO. The mixture was incubated for 2 hours at 23° C.
(§6) TR-FRET measurements were performed on a Biotek Synergy Neo plate reader. TR-FRET was measured by excitation of the Terbium-donor at 340 nm and subsequent (delay time 100 μs) measurement of terbium and fluorescein emission at 495 nm and 520 nm, respectively, over a collection time of 300 μs. The TR-FRET signal was calculated as the emission-ratio at 520 nm over 495 nm.
(§7) The TR-FRET ratio readout for test compounds was normalized against 0% inhibition controls wells and 100% inhibition control wells. Test compound potency (IC50) was estimated by nonlinear regression using the sigmoidal dose-response (variable slope) using Xlfit 4 (IDBS, Guildford, Surrey, UK, model 205). Were the IC50 could not be determined the % inhibition at the highest tested concentration is given.
(§8) y=(A+((B−A)/(1+((C/x)^D))))
(§9) where y is the normalized TR-TRET ratio measurement for a given concentration of test compound, x is the concentration of test compound, A is the estimated efficacy (% inhibition) at infinite compound dilution, and B is the maximal efficacy (% inhibition). C is the IC50 value and D is the Hill slope coefficient.
(§10) The K1 values were determined from the IC50 values according to Cer et al, Nucleic Acids Res, 2009, July 1; 37 (WebServer issue): W441-W445.

BCL2 D111A = BCL2 D111A (Homo sapiens, UniProt P10415, D111A); assay: TR-FRET competitive binding assay, BCL2 D111A; conditions: Ki determined from IC50, read-out: TR_FRET EKI_Bcl2 D111A
Method: as §2, §3, §4, §5, §6, §7, §8, §9, §10

BCLXL WT = BCLXL WT (Homo sapiens (Human), UniProt Q07817); assay: TR-FRET competitive binding assay, BCLXL WT; conditions: for Ki: BCLXL WT, Ki determined from IC50, read-out: TR_FRET EKI BclxL; for TR_FRET EKI BCLxL/WT selectivty ratio: ratio Ki BCLxL / Ki BCL2 WT
Outline: as §1

KMS-12-PE Bcl-2 WT = assay: In vitro cytotoxicity CellTiter-Glo 48 h, KMS-12-PE Bcl-2 WT; format: cell-based; conditions: C50 = concentration needed to reach 50% of the cellular viability
Outline: (§11)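 Viability measured by CellTiter-Glo luminescence after 48 h compound exposure (11-point curve, 37 °C, 5% CO2). Cells: KMS-12-PE transduced with wild-type or G101V-mutant Bcl-2, FACS-sorted for TagRFP. Reported C50 = concentration reaching 50% cellular viability.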

KMS-12-PE Bcl-2 G101V = assay: In vitro cytotoxicity CellTiter-Glo 48 h, KMS-12-PE Bcl-2 G101V; format: cell-based; conditions: for Ratio (G101V/WT): C50 KMS-12-PE Bcl-2 G101V over C50 KMS-12-PE Bcl-2 WT; for IC50: 48 h, CellTiter-Glo, C50 = concentration needed to reach 50% of the cellular viability
Outline: as §11

Chain of BCLXL WT (Q07817 other isoform, or with tags, fused parts or gaps): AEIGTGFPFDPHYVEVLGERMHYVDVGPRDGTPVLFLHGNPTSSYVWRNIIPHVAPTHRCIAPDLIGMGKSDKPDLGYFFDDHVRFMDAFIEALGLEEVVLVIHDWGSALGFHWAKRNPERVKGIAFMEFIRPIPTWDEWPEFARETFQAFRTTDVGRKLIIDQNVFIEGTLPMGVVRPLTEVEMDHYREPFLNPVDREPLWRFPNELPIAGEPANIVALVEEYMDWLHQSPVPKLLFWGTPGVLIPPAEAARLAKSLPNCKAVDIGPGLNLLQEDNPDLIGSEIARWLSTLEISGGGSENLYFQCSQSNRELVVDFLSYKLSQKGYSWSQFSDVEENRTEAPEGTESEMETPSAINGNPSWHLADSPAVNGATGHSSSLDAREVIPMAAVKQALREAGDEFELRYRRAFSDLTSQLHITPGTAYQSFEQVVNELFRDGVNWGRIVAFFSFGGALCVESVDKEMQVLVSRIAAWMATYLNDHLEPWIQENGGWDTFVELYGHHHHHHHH

SMILES | Ki (BCL2 WT) | Ki (BCL2 G101V [1]) | TR_FRET EKI G101V/WT selectivty ratio (BCL2 G101V [2]) | Ki (BCL2 D103Y) | Ki (BCL2 F104I) | Ki (BCL2 D111A) | Ki (BCLXL WT) | TR_FRET EKI BCLxL/WT selectivty ratio (BCLXL WT) | IC50 (KMS-12-PE Bcl-2 WT; Homo sapiens, KMS-12-PE) | Ratio (G101V/WT) (KMS-12-PE Bcl-2 G101V) | IC50 (KMS-12-PE Bcl-2 G101V; Homo sapiens, KMS-12-PE) | IC50 (KMS-12-PE Bcl-2 G101V) | IC50 (KMS-12-PE Bcl-2 WT)
Cc1c(N(C(=O)c2cc(-c3cc4c(cc3C(=O)N3Cc5ccccc5C[C@H]3CN3CCCCC3)CN(C(=O)Cc3ccc(OCCN5CCOC(C)C5)cc3F)CC4)n(C)c2C)c2ccc(O)cc2)cc(C#N)n1C (single isomer, unassigned) [Example 108, N-(5-cyano-1,2-dimethyl-1H-pyrrol-3-yl)-5-[2-(2-{2-fluoro-4-[2-((2S or R)-2-methylmorpholin-4-yl)ethoxy]phenyl}acetyl)-7-[(3S)-3-[(piperidin-1-yl)methyl]-1,2,3,4-tetrahydroisoquinoline-2-carbonyl]-1,2,3,4-tetrahydroisoquinolin-6-yl]-N-(4-hydroxyphenyl)-1,2-dimethyl-1H-pyrrole-3-carboxamide] | 0.07 nM | 0.4 nM | 5.1 | 0.14 nM | 0.19 nM | 0.16 nM | 2.1 nM | 30.9 | 0.0066 µM | 5.85 | 0.0383 µM |  | 
Cc1c(N(C(=O)c2cc(-c3cc4c(cc3C(=O)N3Cc5ccccc5C[C@H]3CN3CCCCC3)CN(C(=O)Cc3ccc(OCC(C)N5CCOCC5)cc3)CC4)n(C)c2C)c2ccc(O)cc2)cc(C#N)n1C (single isomer, unassigned) [Example 127, N-(5-cyano-1,2-dimethyl-1H-pyrrol-3-yl)-N-(4-hydroxyphenyl)-1,2-dimethyl-5-[2-(2-{4-[(2S or R)-2-(morpholin-4-yl)propoxy]phenyl}acetyl)-7-[(3S)-3-[(piperidin-1-yl)methyl]-1,2,3,4-tetrahydroisoquinoline-2-carbonyl]-1,2,3,4-tetrahydroisoquinolin-6-yl]-1H-pyrrole-3-carboxamide] | 0.05 nM | 0.2 nM | 4.3 | 0.16 nM | 0.26 nM | 0.13 nM | 3.6 nM | 76.6 | 0.0077 µM | 3.58 |  | 0.0277 µM | 
Cc1c(N(C(=O)c2cc(-c3cc4c(cc3C(=O)N3Cc5ccccc5C[C@H]3C)CN(C(=O)c3cnc(-c5ccccc5)s3)CC4)n(C)c2C)c2ccc(O)cc2)cc(C#N)n1C [Example 17, N-(5-cyano-1,2-dimethyl-1H-pyrrol-3-yl)-N-(4-hydroxyphenyl)-1,2-dimethyl-5-{7-[(3R)-3-methyl-1,2,3,4-tetrahydroisoquinoline-2-carbonyl]-2-(2-phenyl-1,3-thiazole-5-carbonyl)-1,2,3,4-tetrahydroisoquinolin-6-yl}-1H-pyrrole-3-carboxamide] | 0.65 nM | 4 nM | 6.2 | 4.1 nM | 33.9 nM | 3.34 nM | 9.6 nM | 14.8 | 0.0032 µM | 4.51 | 0.0144 µM |  | 
Cc1c(N(C(=O)c2cc(-c3cc4c(cc3C(=O)N3Cc5ccccc5C[C@H]3C)CN(C(=O)C3CCN(c5ccccc5)C3=O)CC4)n(C)c2C)c2ccc(O)cc2)cc(C#N)n1C (some centres unmarked) [Example 29] | 0.67 nM | 6.9 nM | 10.3 | 0.98 nM | 78 nM | 1.29 nM | 13.1 nM | 19.6 |  | 3.62 |  | 0.0594 µM | 0.0164 µM
Cc1c(N(C(=O)c2cc(-c3cc4c(cc3C(=O)N3Cc5ccccc5C[C@H]3C)CN(C(=O)Cc3ccc(OCCN5CCC(O)CC5)cc3)CC4)n(C)c2C)c2ccc(O)cc2)cc(C#N)n1C [Example 30, N-(5-cyano-1,2-dimethyl-1H-pyrrol-3-yl)-N-(4-hydroxyphenyl)-5-[2-(2-{4-[2-(4-hydroxypiperidin-1-yl)ethoxy]phenyl}acetyl)-7-[(3R)-3-methyl-1,2,3,4-tetrahydroisoquinoline-2-carbonyl]-1,2,3,4-tetrahydroisoquinolin-6-yl]-1,2-dimethyl-1H-pyrrole-3-carboxamide] | 0.1 nM | 0.2 nM | 1.9 | 0.19 nM | 0.26 nM | 0.12 nM | 1.1 nM | 11.6 | 0.0191 µM | 4.76 | 0.0909 µM |  | 

The remaining compounds from weak to strong by Ki (BCL2 WT), led by results:

Ki (BCL2 WT) | Ki (BCL2 G101V [1]) | TR_FRET EKI G101V/WT selectivty ratio (BCL2 G101V [2]) | Ki (BCL2 D103Y) | Ki (BCL2 F104I) | Ki (BCL2 D111A) | Ki (BCLXL WT) | TR_FRET EKI BCLxL/WT selectivty ratio (BCLXL WT) | SMILES | IC50 (KMS-12-PE Bcl-2 WT; Homo sapiens, KMS-12-PE) | Ratio (G101V/WT) (KMS-12-PE Bcl-2 G101V) | IC50 (KMS-12-PE Bcl-2 G101V; Homo sapiens, KMS-12-PE) | IC50 (KMS-12-PE Bcl-2 G101V) | IC50 (KMS-12-PE Bcl-2 WT)
0.3 nM | 4.2 nM | 14.0 | 1.23 nM | 53.5 nM | 2.65 nM | 30.2 nM | 100.7 | Cc1c(N(C(=O)c2cc(-c3cc4c(cc3C(=O)N3Cc5ccccc5C[C@H]3C)CN(C(=O)C(F)(F)c3ccccc3)CC4)n(C)c2C)c2ccc(O)cc2)cc(C#N)n1C [Example 18, N-(5-cyano-1,2-dimethylpyrrol-3-yl)-5-[2-(2,2-difluoro-2-phenylacetyl)-7-{[(3R)-3-methyl-3,4-dihydro-1H-isoquinolin-2-yl]carbonyl}-3,4-dihydro-1H-isoquinolin-6-yl]-N-(4-hydroxyphenyl)-1,2-dimethylpyrrole-3-carboxamide] | 0.0055 µM | 8.67 | 0.0477 µM |  | 
0.07 nM | 0.4 nM | 5.8 | 0.21 nM | 0.34 nM | 0.17 nM | 4.5 nM | 60.8 | Cc1c(N(C(=O)c2cc(-c3cc4c(cc3C(=O)N3Cc5ccccc5C[C@H]3CN3CCCCC3)CN(C(=O)Cc3ccc(OCC(C)N5CCOCC5)cc3F)CC4)n(C)c2C)c2ccc(O)cc2)cc(C#N)n1C (single isomer, unassigned) [Example 135, N-(5-cyano-1,2-dimethyl-1H-pyrrol-3-yl)-5-[2-(2-{2-fluoro-4-[(2S or R)-2-(morpholin-4-yl)propoxyphenyl}acetyl)-7-[(3S)-3-[(piperidin-1-yl)methyl]-1,2,3,4-tetrahydroisoquinoline-2-carbonyl]-1,2,3,4-tetrahydroisoquinolin-6-yl]-N-(4-hydroxyphenyl)-1,2-dimethyl-1H-pyrrole-3-carboxamide] | 0.0044 µM | 7.72 | 0.0339 µM |  | 
